Reference: ChEMBL document CHEMBL4330126 (2019)
Active and inactive are the calls of the source. The calls are words filed in the database; no cut-off is given here.

How the values were obtained:
RAW264.7 [1] = test: Antiinflammatory activity against mouse RAW264.7 cells assessed as inhibition of LPS-induced nitric oxide production after 24 hrs by Griess assay; assay type: functional, cell-based
[2] = biological target: MAP kinase p38 (Mus musculus) (UniProt P47811+O08911+Q9WUI1+Q9Z1B7); test: Inhibition of LPS-induced p38 phosphorylation in mouse RAW264.7 cells at 0.5 x 10^-3 to 10^-3 M after 24 hrs by Western blot analysis; assay type: cell-based
RAW264.7 [3] = test: Antiinflammatory activity in mouse RAW264.7 cells assessed as decrease in LPS-induced TNF-alpha level at 10^-3 M by ELISA; assay type: functional; parameters: scale not given: the % may be the effect or the level left
RAW264.7 [4] = test: Inhibition of LPS-stimulated NFkappaB/MAPK signaling activation in mouse RAW264.7 cells assessed as increase in IkappaB protein level after 24 hrs by Western blot analysis; assay type: cell-based
RAW264.7 [5] = test: Anti-inflammatory activity in mouse RAW264.7 cells assessed as inhibition of LPS-induced iNOS level at 10^-3 M by Western blot analysis; assay type: functional, cell-based
RAW264.7 [6] = test: Anti-inflammatory activity in mouse RAW264.7 cells assessed as inhibition of LPS-induced IL-1beta mRNA expression at 10^-3 M after 24 hrs by qRT-PCR analysis; assay type: functional; conditions: RAW264.7, 24 h
RAW264.7 [7] = test: Anti-inflammatory activity in mouse RAW264.7 cells assessed as inhibition of LPS-induced IL-6 mRNA expression at 10^-3 M after 24 hrs by qRT-PCR analysis; assay type: functional; conditions: RAW264.7, 24 h
RAW264.7 [8] = test: Anti-inflammatory activity in mouse RAW264.7 cells assessed as inhibition of LPS-induced TNF-alpha mRNA expression at 10^-3 M after 24 hrs by qRT-PCR analysis; assay type: functional; conditions: RAW264.7, 24 h
RAW264.7 [9] = test: Antiinflammatory activity in mouse RAW264.7 cells assessed as decrease in LPS-induced IL-1beta level at 10^-3 M by ELISA; assay type: functional; parameters: scale not given: the % may be the effect or the level left
RAW264.7 [10] = test: Inhibition of LPS-induced ROS generation in mouse RAW264.7 cells at 0.5 x 10^-3 to 10^-3 M after 24 hrs by DCFDA staining-based fluorescence microscopy; assay type: functional, cell-based
RAW264.7 [11] = test: Antiinflammatory activity in mouse RAW264.7 cells assessed as decrease in LPS-induced IL-6 level at 10^-3 M by ELISA; assay type: functional; parameters: scale not given: the % may be the effect or the level left
RAW264.7 [12] = test: Inhibition of LPS-stimulated NFkappaB/MAPK signaling activation in mouse RAW264.7 cells assessed as decrease in phosphorylated IKK protein level level after 24 hrs by Western blot analysis; assay type: cell-based
RAW264.7 [13] = test: Inhibition of LPS-induced JNK-phosphorylation in mouse RAW264.7 cells at 0.5 x 10^-3 to 10^-3 M after 24 hrs by Western blot analysis; assay type: cell-based
RAW264.7 [14] = test: Inhibition of LPS-stimulated NFkappaB/MAPK signaling activation in mouse RAW264.7 cells assessed as decrease in JunB protein level at 0.5 x 10^-3 to 10^-3 M after 24 hrs by Western blot analysis; assay type: cell-based
[15] = biological target: Mitogen-activated protein kinase 1 and 3 (ERK2 and ERK1) (Mus musculus) (UniProt P63085+Q63844); test: Inhibition of LPS-induced ERK-1/2 phosphorylation in mouse RAW264.7 cells at 0.5 x 10^-3 to 10^-3 M after 24 hrs by Western blot analysis; assay type: cell-based
Chain of Mitogen-activated protein kinase 1 and 3 (ERK2 and ERK1) (Mus musculus) (P63085 whole entry, looked up): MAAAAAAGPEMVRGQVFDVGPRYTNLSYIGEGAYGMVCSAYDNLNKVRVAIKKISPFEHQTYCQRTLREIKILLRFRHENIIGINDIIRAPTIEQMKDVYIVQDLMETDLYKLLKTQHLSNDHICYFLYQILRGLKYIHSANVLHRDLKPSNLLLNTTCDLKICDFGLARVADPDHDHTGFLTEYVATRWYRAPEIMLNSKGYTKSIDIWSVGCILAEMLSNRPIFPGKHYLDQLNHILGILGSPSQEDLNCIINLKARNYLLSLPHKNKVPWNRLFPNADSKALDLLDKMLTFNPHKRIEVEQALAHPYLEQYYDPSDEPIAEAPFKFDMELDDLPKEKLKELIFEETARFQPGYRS
Chain of Mitogen-activated protein kinase 1 and 3 (ERK2 and ERK1) (Mus musculus) (Q63844 whole entry, looked up): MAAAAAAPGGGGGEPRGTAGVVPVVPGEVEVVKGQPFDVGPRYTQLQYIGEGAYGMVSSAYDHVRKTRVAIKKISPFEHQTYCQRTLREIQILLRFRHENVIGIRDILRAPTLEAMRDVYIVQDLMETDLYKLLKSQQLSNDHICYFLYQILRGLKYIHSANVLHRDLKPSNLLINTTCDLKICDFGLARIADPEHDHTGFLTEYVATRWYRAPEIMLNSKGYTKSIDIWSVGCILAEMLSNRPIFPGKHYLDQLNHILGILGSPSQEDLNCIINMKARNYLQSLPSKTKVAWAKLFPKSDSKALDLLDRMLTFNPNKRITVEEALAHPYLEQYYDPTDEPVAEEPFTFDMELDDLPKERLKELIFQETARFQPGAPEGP

RAW264.7 [16] = test: Antiinflammatory activity in mouse RAW264.7 cells assessed as decrease in LPS-induced IL-8 level at 10^-3 M by ELISA; assay type: functional; parameters: scale not given: the % may be the effect or the level left
RAW264.7 [17] = test: Inhibition of LPS-induced ROS generation in mouse RAW264.7 cells at 0.5 x 10^-3 to 10^-3 M after 24 hrs by DCFDA staining-based flow cytometric analysis; assay type: functional, cell-based
RAW264.7 [18] = test: Inhibition of LPS-induced morphological changes in mouse RAW264.7 cells at 0.5 x 10^-3 to 10^-3 M after 24 hrs by […] fluorescence microscopy; assay type: functional, cell-based
RAW264.7 [19] = test: Inhibition of LPS-stimulated NFkappaB/MAPK signaling activation in mouse RAW264.7 cells assessed as decrease in phosphorylated c-Jun protein level at 0.5 x 10^-3 to 10^-3 M after 24 hrs by Western blot analysis; assay type: cell-based
RAW264.7 [20] = test: Anti-inflammatory activity in mouse RAW264.7 cells assessed as inhibition of LPS-induced iNOS mRNA expression at 10^-3 M by qRT-PCR analysis; assay type: functional, cell-based
RAW264.7 [21] = test: Anti-inflammatory activity in mouse RAW264.7 cells assessed as inhibition of LPS-induced IL-8 mRNA expression at 10^-3 M after 24 hrs by qRT-PCR analysis; assay type: functional; conditions: RAW264.7, 24 h

CC1(C)[C@@H](O[C@H]2O[C@H](C(=O)[O-])[C@@H](O)[C@H](O)[C@H]2O[C@@H]2O[C@H](C(=O)[O-])[C@@H](O)[C@H](O)[C@H]2O)CC[C@]2(C)[C@H]3C(=O)C=C4[C@@H]5C[C@@](C)(C(=O)O)CC[C@]5(C)CC[C@@]4(C)[C@]3(C)CC[C@@H]12.O.O.O.O.[Mg+2]
inhibition (RAW264.7 [1]): Dose-dependent effect | inhibition [2]: Active | Activity (RAW264.7 [3]): 17.3% | inhibition (RAW264.7 [4]): Dose-dependent effect | inhibition (RAW264.7 [5]): Active | inhibition at 1000 µM (RAW264.7 [6]): 61.7% | inhibition at 1000 µM (RAW264.7 [7]): 46.2% | inhibition at 1000 µM (RAW264.7 [8]): 48.6% | Activity (RAW264.7 [9]): 33.6% | inhibition (RAW264.7 [10]): Active | Activity (RAW264.7 [11]): 28.7% | inhibition (RAW264.7 [12]): Dose-dependent effect | inhibition (RAW264.7 [13]): Active | inhibition (RAW264.7 [14]): Active | inhibition [15]: Active | Activity (RAW264.7 [16]): 49.3% | inhibition (RAW264.7 [17]): Active | inhibition (RAW264.7 [18]): Active | inhibition (RAW264.7 [19]): Active | inhibition (RAW264.7 [20]): Active | inhibition at 1000 µM (RAW264.7 [21]): 88.4%
